Patent US10399989B2, “Pyrazolopyrimidine derivatives as BTK inhibitors for the treatment of cancer” (Loxo Oncology, Inc., priority 2016, dated 2019)
Where two headings read alike, the source gives them in different places.

Columns and labels:
BTK^WT = BTK^WT (Homo sapiens (Human), UniProt Q06187); assay: BTK^WT binding affinity (TR-FRET, LanthaScreen)
Procedure: BTK^WT binding affinity of each compound tested was determined using a time-resolved fluorescence resonance energy transfer (TR-FRET) methodology. 2.5 nM Recombinant BTK^WT kinase, varying concentrations of inhibitor, 2 nM LanthaScreen™ Eu anti-His Antibody and 15 nM Kinase Tracer 236 was incubated in 1× LanthaScreen™ Kinase Buffer A for 5 h. Recombinant BTK kinase and all LanthaScreen™ components were purchased from Invitrogen. Measurements were performed in a reaction volume of 30 μL using half-area 96-well assay plates. The TR-FRET signal was read on a plate reader with an excitation wavelength of 340 nm and detection wavelengths of 615 and 665 nm. Binding affinity was determined for each compound by measuring TR-FRET signal at various concentrations of compound and plotting the relative fluorescence units against the inhibitor concentration to estimate the IC50 from log [Inhibitor] vs response using the Variable Slope model in Graphpad prism from Graphpad software (SanDiego, Calif.).

BTK^C481S = BTK^C481S (Homo sapiens (Human), UniProt Q06187, C481S); assay: BTK^C481S binding affinity (TR-FRET, LanthaScreen); conditions: 5 h incubation
Procedure: BTK^C481S binding affinity of each compound tested was determined using a time-resolved fluorescence resonance energy transfer (TR-FRET) methodology. 5 nM Recombinant […] kinase, varying concentrations of inhibitor, 2 nM LanthaScreen™ Eu anti-His Antibody and 30 nM Kinase Tracer 236 was incubated in 1× LanthaScreen™ Kinase Buffer A for 5 h. Recombinant BTK^C481S kinase was purchased from SignalChem and all LanthaScreen™ components were purchased from Invitrogen. Measurements were performed in a reaction volume of 30 μL using half-area 96-well assay plates. The TR-FRET signal was read on a plate reader with an excitation wavelength of 340 nm and detection wavelengths of 615 and 665 nm. Binding affinity was determined for each compound by measuring TR-FRET signal at various concentrations of compound and plotting the relative fluorescence units against the inhibitor concentration to estimate the IC50 from log [Inhibitor] vs response using the Variable Slope model in Graphpad prism from Graphpad software (SanDiego, Calif.).

EGFR = EGFR (Homo sapiens (Human), UniProt P00533); assay: EGFR binding affinity (TR-FRET, LanthaScreen); conditions: 5 h incubation
Procedure: EGFR binding affinity was determined using a time-resolved fluorescence resonance energy transfer (TR-FRET) methodology. 2.5 nM Recombinant EGFR, varying concentrations of inhibitor, 2 nM LanthaScreen™ Eu anti-GST Antibody and 3 nM Kinase Tracer 199 was incubated in 1× LanthaScreen™ Kinase Buffer A for 5 h. Recombinant EGFR and all LanthaScreen™ components were purchased from Invitrogen. Measurements were performed in a reaction volume of 30 μL using half-area 96-well assay plates. The TR-FRET signal was read on a plate reader with an excitation wavelength of 340 nm and detection wavelengths of 615 and 665 nm. Binding affinity was determined for each compound by measuring TR-FRET signal at various concentrations of compound and plotting the relative fluorescence units against the inhibitor concentration to estimate the IC50 from log [Inhibitor] vs response using the Variable Slope model in Graphpad prism from Graphpad software (SanDiego, Calif.).

[1] = TR-FRET binding, 5 h incubation, read-out: BTK^WT IC50
[2] = Table 6, numeric values, read-out: BTK Binding IC50

Sequence of EGFR (P00533 25-1210): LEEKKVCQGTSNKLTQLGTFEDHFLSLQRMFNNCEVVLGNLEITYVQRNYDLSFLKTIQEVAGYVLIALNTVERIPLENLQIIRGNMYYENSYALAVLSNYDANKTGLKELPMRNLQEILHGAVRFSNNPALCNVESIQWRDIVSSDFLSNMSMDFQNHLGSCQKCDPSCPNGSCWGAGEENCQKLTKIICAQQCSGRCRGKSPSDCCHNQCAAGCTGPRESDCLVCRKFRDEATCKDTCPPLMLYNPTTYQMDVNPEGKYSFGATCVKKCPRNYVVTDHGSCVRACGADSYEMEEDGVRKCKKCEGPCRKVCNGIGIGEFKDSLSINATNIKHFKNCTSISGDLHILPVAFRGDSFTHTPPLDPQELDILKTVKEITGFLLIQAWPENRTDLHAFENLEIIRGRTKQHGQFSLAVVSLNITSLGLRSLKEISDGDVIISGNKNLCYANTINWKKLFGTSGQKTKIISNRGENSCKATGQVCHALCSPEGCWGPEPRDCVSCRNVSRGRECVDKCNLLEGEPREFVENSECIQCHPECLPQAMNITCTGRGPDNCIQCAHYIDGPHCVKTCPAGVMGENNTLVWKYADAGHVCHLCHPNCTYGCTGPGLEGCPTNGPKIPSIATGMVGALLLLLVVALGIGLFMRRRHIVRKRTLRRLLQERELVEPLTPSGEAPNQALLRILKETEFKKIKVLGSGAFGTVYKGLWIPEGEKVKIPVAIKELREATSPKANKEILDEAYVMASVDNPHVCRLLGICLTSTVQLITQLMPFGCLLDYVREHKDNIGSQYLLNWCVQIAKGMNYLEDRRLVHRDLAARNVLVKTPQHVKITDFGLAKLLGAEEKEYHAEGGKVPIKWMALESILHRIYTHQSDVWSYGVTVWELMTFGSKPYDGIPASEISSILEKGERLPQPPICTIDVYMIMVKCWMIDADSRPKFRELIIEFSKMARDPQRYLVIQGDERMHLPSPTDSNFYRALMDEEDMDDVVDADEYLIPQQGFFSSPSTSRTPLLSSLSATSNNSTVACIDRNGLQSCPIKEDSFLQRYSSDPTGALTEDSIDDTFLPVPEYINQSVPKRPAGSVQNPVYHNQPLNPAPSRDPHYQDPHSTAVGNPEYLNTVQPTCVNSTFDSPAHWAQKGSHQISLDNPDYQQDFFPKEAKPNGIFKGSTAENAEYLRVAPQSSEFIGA
Sequence of BTK^C481S (Q06187 whole entry C481S): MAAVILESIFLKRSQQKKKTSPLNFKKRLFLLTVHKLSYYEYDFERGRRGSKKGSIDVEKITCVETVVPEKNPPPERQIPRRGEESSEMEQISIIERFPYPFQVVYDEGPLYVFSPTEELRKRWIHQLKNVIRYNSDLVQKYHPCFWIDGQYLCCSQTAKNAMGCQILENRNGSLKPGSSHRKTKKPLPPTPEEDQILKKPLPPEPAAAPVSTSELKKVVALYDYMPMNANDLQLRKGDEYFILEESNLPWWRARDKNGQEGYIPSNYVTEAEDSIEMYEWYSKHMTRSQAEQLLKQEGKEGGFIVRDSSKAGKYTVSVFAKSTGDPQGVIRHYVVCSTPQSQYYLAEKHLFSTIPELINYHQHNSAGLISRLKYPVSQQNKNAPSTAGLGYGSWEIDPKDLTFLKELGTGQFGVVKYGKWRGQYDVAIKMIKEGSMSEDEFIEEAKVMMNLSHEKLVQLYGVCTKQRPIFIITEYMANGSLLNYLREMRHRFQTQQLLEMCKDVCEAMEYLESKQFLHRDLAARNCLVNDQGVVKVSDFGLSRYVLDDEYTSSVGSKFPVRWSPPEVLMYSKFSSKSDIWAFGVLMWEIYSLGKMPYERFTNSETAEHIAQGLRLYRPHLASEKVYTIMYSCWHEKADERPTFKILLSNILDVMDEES
Sequence of BTK^WT (Q06187 whole entry): as the sequence (Q06187 whole entry C481S) above, with S481C counted along it

| SMILES | IC50 (BTK^WT; [1]) | IC50 (BTK^C481S) | IC50 (EGFR) | IC50 (BTK^WT; [2]) |
| --- | --- | --- | --- | --- |
| COc1ccccc1C(=O)NCc1ccc(-c2nn([C@H]3CC[C@@H](C(=O)N(C)C)CC3)c3ncnc(N)c23)cc1 (single isomer, unassigned; isomer 2) [33-isomer 2] | ≤ 10 nM | ≤ 10 nM |  |  |
| Nc1ncnc2c1c(-c1ccc(CNC(=O)c3ccccc3OC(F)(F)F)cc1)nn2C1CCCC1 [Example 6, N-[[4-(4-Amino-1-cyclopentyl-pyrazolo[3,4-d]pyrimidin-3-yl)phenyl]methyl]-2-(trifluoromethoxy)benzamide] | 100 to 1000 nM |  | 100 to 1000 nM |  |
| COc1ccccc1C(=O)N(C)Cc1ccc(-c2nn(C3CCCC3)c3ncnc(N)c23)cc1 [Example 17, N-[[4-(4-Amino-1-cyclopentyl-pyrazolo[3,4-d]pyrimidin-3-yl)phenyl]methyl]-2-methoxy-N-methyl-benzamide] |  |  | 1000 to 10000 nM |  |
| COc1ccccc1C(=O)NCc1ccc(-c2nn(C3CCC4(CC3)OCCO4)c3ncnc(N)c23)cc1 [Example 19, N-[[4-[4-amino-1-(1,4-dioxaspiro[4.5]decan-8-yl)pyrazolo[3,4-d]pyrimidin-3-yl]phenyl]methyl]-2-methoxy-benzamide] | ≤ 10 nM | ≤ 10 nM |  |  |
| N#Cc1cccc(C(=O)NCc2ccc(-c3nn(C4CCCC4)c4ncnc(N)c34)cc2)c1 [Example 20, N-[[4-(4-amino-1-cyclopentyl-pyrazolo[3,4-d]pyrimidin-3-yl)phenyl]methyl]-3-cyano-benzamide] |  |  | 1000 to 10000 nM |  |
| COc1c(C)cccc1C(=O)NCc1ccc(-c2nn(C3CCCC3)c3ncnc(N)c23)cc1 [Example 22, N-[[4-(4-amino-1-cyclopentyl-pyrazolo[3,4-d]pyrimidin-3-yl)phenyl]methyl]-2-methoxy-3-methyl-benzamide] |  |  | 1000 to 10000 nM |  |
| COc1ccccc1C(=O)NCc1ccc(-c2nn(C3CCC(C(=O)O)CC3)c3ncnc(N)c23)cc1 (stereo not shown) [Example 30, 4-[4-amino-3-[4-[[(2-methoxybenzoyl)amino]methyl]phenyl]pyrazolo[3,4-d]pyrimidin-1-yl]cyclohexanecarboxylic acid] | ≤ 10 nM | ≤ 10 nM | 100 to 1000 nM | 1.4 nM |
| COc1ccccc1C(=O)NCc1ccc(-c2nn([C@@H]3CCc4ccccc43)c3ncnc(N)c23)cc1 [Example 56, N-[(4-{4-amino-1-[(1R)-2,3-dihydro-1H-inden-1-yl]-1H-pyrazolo[3,4-d]pyrimidin-3-yl}phenyl)methyl]-2-methoxybenzamide] | ≤ 10 nM | ≤ 10 nM |  | 1.2 nM |
| COc1ccccc1C(=O)NC1(c2ccc(-c3nn(C4CCCC4)c4ncnc(N)c34)cc2)CC1 [Example 67, N-[1-[4-(4-amino-1-cyclopentyl-pyrazolo[3,4-d]pyrimidin-3-yl)phenyl]cyclopropyl]-2-methoxy-benzamide] | 1000 to 10000 nM | 1000 to 10000 nM | 1000 to 10000 nM |  |
| COc1cc2ccccc2cc1C(=O)NCc1ccc(-c2nn(C3CCCC3)c3ncnc(N)c23)cc1 [Example 71, N-[[4-(4-amino-1-cyclopentyl-pyrazolo[3,4-d]pyrimidin-3-yl)phenyl]methyl]-3-methoxy-naphthalene-2-carboxamide] | 100 to 1000 nM | 100 to 1000 nM |  |  |
| Nc1ncnc2c1c(-c1ccc(CNC(=O)c3ccc4ccccc4c3)cc1)nn2C1CCCC1 [Example 72, N-[[4-(4-amino-1-cyclopentyl-pyrazolo[3,4-d]pyrimidin-3-yl)phenyl]methyl]naphthalene-2-carboxamide] | 100 to 1000 nM |  |  |  |
| COc1ccccc1C(=O)NCc1c(F)cc(-c2nn(C3CCCC3)c3ncnc(N)c23)cc1F [Example 73, N-[[4-(4-amino-1-cyclopentyl-pyrazolo[3,4-d]pyrimidin-3-yl)-2,6-difluoro-phenyl]methyl]-2-methoxy-benzamide] | 100 to 1000 nM | 10 to 100 nM | 1000 to 10000 nM |  |
| COc1ccccc1C(=O)NCc1ccc(-c2nn(C(C)C)c3ncnc(N)c23)cc1 [Example 78, N-[[4-(4-amino-1-isopropyl-pyrazolo[3,4-d]pyrimidin-3-yl)phenyl]methyl]-2-methoxy-benzamide] | ≤ 10 nM | ≤ 10 nM | 1000 to 10000 nM |  |
| COc1ccccc1C(=O)NCc1ccc(-c2nn(C3CCCC3)c3ncnc(N)c23)c(C)c1 [Example 79, N-[[4-(4-amino-1-cyclopentyl-pyrazolo[3,4-d]pyrimidin-3-yl)-3-methyl-phenyl]methyl]-2-methoxy-benzamide] | ≤ 10 nM | ≤ 10 nM | 1000 to 10000 nM |  |
| Nc1ncnc2c1c(-c1ccc(CNC(=O)c3nc4ccccc4s3)cc1)nn2C1CCCC1 [Example 82, N-[[4-(4-amino-1-cyclopentyl-pyrazolo[3,4-d]pyrimidin-3-yl)phenyl]methyl]-1,3-benzothiazole-2-carboxamide] | > 10000 nM |  | > 10000 nM |  |
| Nc1ncnc2c1c(-c1ccc(CNC(=O)c3cc4ccccc4o3)cc1)nn2C1CCCC1 [Example 83, N-[[4-(4-amino-1-cyclopentyl-pyrazolo[3,4-d]pyrimidin-3-yl)phenyl]methyl]benzofuran-2-carboxamide] | > 10000 nM |  |  |  |
| Nc1ncnc2c1c(-c1ccc(CNC(=O)c3cc4ccccc4s3)cc1)nn2C1CCCC1 [Example 84, N-[[4-(4-amino-1-cyclopentyl-pyrazolo[3,4-d]pyrimidin-3-yl)phenyl]methyl]benzothiophene-2-carboxamide] | 1000 to 10000 nM |  |  |  |
| Nc1ncnc2c1c(-c1ccc(CNC(=O)c3ccc4ccccc4n3)cc1)nn2C1CCCC1 [Example 85, N-[[4-(4-amino-1-cyclopentyl-pyrazolo[3,4-d]pyrimidin-3-yl)phenyl]methyl]quinoline-2-carboxamide] | 1000 to 10000 nM |  |  |  |
| Nc1ncnc2c1c(-c1ccc(CNC(=O)C3CNc4ccccc4O3)cc1)nn2C1CCCC1 (stereo not shown) [Example 86, N-[[4-(4-Amino-1-cyclopentyl-pyrazolo[3,4-d]pyrimidin-3-yl)phenyl]methyl]-3,4-dihydro-2H-1,4-benzoxazine-2-carboxamide] | > 10000 nM | > 10000 nM |  |  |
| Nc1ncnc2c1c(-c1ccc(CNC(=O)c3cccc4ncoc34)cc1)nn2C1CCCC1 [Example 87, N-[[4-(4-amino-1-cyclopentyl-pyrazolo[3,4-d]pyrimidin-3-yl)phenyl]methyl]-1,3-benzoxazole-7-carboxamide] | 1000 to 10000 nM |  |  |  |
| Nc1ncnc2c1c(-c1ccc(CNC(=O)c3cc4ccccc4[nH]3)cc1)nn2C1CCCC1 [Example 88, N-[[4-(4-amino-1-cyclopentyl-pyrazolo[3,4-d]pyrimidin-3-yl)phenyl]methyl]-1H-indole-2-carboxamide] |  |  | 1000 to 10000 nM |  |
